Experimental data published in ChEMBL document CHEMBL1144280, “Inhibitors of type I MetAPs containing pyridine-2-carboxylic acid thiazol-2-ylamide. Part 1: SAR studies on the determination of the key scaffold” (Bioorg Med Chem Lett, 2005).

Tests used:
[1] = target: T1, Methionine aminopeptidase (Escherichia coli K-12, UniProt P0AE18); test: Inhibitory concentration against Escherichia coli methionine aminopeptidase 1
T1 sequence (P0AE18 whole entry): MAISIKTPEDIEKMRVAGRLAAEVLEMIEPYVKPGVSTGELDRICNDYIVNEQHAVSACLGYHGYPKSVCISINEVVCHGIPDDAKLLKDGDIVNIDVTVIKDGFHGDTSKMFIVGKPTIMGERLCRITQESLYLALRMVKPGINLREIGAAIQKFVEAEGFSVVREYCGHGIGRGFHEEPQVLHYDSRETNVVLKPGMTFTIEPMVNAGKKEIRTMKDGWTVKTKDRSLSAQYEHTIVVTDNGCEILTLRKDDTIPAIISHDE

[2] = target: T2, Methionine aminopeptidase 1 (Saccharomyces cerevisiae S288c, UniProt Q01662); test: Inhibitory concentration against Saccharomyces cerevisiae methionine aminopeptidase 1
T2 sequence (Q01662 whole entry): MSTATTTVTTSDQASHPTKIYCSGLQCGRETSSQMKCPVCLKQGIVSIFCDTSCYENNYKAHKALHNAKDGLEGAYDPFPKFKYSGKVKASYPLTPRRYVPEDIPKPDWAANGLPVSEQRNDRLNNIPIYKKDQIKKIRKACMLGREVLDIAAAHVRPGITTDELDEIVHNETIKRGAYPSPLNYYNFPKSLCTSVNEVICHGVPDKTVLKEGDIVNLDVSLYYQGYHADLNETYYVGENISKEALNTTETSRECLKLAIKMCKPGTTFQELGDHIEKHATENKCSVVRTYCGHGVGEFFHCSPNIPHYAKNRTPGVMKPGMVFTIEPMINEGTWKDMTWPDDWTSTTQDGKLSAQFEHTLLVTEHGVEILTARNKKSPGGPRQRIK

Row | IC50 [1] [µM] | IC50 [2] [µM] | SMILES
1 | 12.8 | 62.9 | CC(C)(C)OC(=O)Nc1ccc(C(=O)Nc2nccs2)nc1
2 | 4.51 | > 100 | O=C(Nc1nccs1)c1cc([N+](=O)[O-])ccn1
3 | > 100 |  | CC(=O)OCc1cccc(C(=O)Nc2nccs2)n1
4 |  | > 100 | COc1ccnc(C(=O)Nc2nccs2)c1
5 | > 100 | > 100 | O=C(Nc1nccs1)c1cc(OCc2ccccc2)ccn1
6 | > 100 | > 100 | CCCCc1ccc(C(=O)Nc2nccs2)nc1
7 | 1.98 | 17 | CC(=O)Nc1ccnc(C(=O)Nc2nccs2)c1
8 | 2.32 | > 100 | O=C(Nc1nccs1)c1cc(NCc2ccccc2)ccn1
9 | > 100 | > 100 | O=C(Nc1nccs1)c1cccc(C(=O)Nc2nccs2)n1
10 | 6.71 | > 100 | Nc1ccnc(C(=O)Nc2nccs2)c1
11 | 2.09 | 2.43 | Nc1ccc(C(=O)Nc2nccs2)nc1
12 | 1.41 | 0.77 | O=C(Nc1nccs1)c1ncccc1OCc1ccccc1
13 | > 100 | > 100 | CC(C)=CCc1ccc(C(=O)Nc2nccs2)nc1
14 | > 100 | > 100 | O=C(Nc1nccs1)c1cc(Cl)ccn1
